The values below come from ChEMBL document CHEMBL3132769, “Fragment growing to retain or alter the selectivity of anchored kinase hinge-binding fragments” (Medchemcomm, 2014).

Each structure is given as a SMILES string.

The target of test [1] is T1, Serine/threonine-protein kinase 3 (Homo sapiens) (UniProt Q13188).
T1 sequence (whole entry): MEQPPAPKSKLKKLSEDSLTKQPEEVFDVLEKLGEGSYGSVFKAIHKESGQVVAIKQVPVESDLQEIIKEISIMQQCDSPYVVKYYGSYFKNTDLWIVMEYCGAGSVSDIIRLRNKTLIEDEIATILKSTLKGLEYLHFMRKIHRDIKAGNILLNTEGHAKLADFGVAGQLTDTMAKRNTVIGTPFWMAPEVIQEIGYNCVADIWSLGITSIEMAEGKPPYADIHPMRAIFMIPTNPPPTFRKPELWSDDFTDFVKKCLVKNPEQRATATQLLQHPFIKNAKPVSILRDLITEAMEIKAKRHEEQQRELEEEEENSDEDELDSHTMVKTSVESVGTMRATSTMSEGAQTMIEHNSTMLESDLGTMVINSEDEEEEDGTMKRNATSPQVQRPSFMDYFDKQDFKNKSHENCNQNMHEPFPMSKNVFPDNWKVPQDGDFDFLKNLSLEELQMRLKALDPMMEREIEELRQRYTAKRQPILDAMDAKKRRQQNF
The experiment in a line: Inhibition of human full length MST2 expressed in baculovirus assessed as substrate phosphorylation using fluorescence-labelled peptides as substrate at 0.2 uM after 90 mins by microfluidic peptide phosphorylation assay.

Test [2] has as its target MAP kinase-activated protein kinase 2 (Homo sapiens) (UniProt P49137). The settings on record: 0.1 uM.
Description: Inhibition of human full length MAPKAPK2 expressed in baculovirus assessed as substrate phosphorylation using fluorescence-labelled peptides as substrate at 0.1 uM after 90 mins by microfluidic peptide phosphorylation assay
Test [3] has as its target T2, Protein kinase C zeta type (Homo sapiens) (UniProt Q05513).
T2 sequence (whole entry): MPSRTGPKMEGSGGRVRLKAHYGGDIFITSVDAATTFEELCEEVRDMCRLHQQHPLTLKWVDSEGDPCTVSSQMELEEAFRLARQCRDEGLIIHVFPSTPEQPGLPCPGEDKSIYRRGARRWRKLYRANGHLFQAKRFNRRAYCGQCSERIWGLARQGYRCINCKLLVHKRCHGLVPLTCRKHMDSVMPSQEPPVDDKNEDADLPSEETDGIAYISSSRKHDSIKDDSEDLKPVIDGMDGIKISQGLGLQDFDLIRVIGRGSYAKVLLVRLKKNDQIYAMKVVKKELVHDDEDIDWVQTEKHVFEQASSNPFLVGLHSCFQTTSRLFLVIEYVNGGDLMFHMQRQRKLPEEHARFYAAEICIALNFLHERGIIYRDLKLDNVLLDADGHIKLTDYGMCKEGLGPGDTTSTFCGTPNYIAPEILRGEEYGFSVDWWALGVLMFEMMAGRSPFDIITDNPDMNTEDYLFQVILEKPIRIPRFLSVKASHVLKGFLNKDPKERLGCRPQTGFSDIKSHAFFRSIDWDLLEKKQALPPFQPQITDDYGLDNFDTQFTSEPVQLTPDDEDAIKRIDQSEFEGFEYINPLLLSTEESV
The experiment in a line: Inhibition of human full length PKC zeta expressed in baculovirus assessed as substrate phosphorylation using fluorescence-labelled peptides as substrate at 9 uM after 90 mins by microfluidic peptide phosphorylation assay.

Test [4] addresses Hepatocyte growth factor receptor (Homo sapiens) (UniProt P08581). The test is described as follows: Inhibition of human MET cytoplasmic domain expressed in baculovirus assessed as substrate phosphorylation using fluorescence-labelled peptides as substrate at 9 uM after 90 mins by microfluidic peptide phosphorylation assay.
In test [5] the target is T3, Interleukin-1 receptor-associated kinase 4 (Homo sapiens) (UniProt Q9NWZ3).
T3 sequence (whole entry): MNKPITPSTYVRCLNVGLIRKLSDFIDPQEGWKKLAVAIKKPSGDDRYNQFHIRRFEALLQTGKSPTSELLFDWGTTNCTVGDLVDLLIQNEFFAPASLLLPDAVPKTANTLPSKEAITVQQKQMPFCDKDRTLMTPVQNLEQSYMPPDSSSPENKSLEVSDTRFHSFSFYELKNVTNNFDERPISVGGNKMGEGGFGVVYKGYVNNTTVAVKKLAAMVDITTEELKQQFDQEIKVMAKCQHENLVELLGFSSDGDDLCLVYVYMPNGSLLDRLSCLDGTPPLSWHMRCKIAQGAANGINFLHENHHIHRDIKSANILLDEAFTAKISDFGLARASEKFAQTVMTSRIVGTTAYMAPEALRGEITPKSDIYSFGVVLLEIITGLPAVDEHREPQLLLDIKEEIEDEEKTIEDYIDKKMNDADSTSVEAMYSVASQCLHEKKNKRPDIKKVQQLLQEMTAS
The test is described as follows: Inhibition of human IRAK4 catalytic domain expressed in baculovirus assessed as substrate phosphorylation using fluorescence-labelled peptides as substrate at 8 uM after 90 mins by microfluidic peptide phosphorylation assay.

Test [6] addresses Protein kinase C beta type (Homo sapiens) (UniProt P05771). The experiment in a line: Inhibition of human full length PKC beta2 expressed in baculovirus assessed as substrate phosphorylation using fluorescence-labelled peptides as substrate at 1000 uM after 90 mins by microfluidic peptide phosphorylation assay.

Sequence of Hepatocyte growth factor receptor (Homo sapiens) (P08581 whole entry, the tested form may be a part): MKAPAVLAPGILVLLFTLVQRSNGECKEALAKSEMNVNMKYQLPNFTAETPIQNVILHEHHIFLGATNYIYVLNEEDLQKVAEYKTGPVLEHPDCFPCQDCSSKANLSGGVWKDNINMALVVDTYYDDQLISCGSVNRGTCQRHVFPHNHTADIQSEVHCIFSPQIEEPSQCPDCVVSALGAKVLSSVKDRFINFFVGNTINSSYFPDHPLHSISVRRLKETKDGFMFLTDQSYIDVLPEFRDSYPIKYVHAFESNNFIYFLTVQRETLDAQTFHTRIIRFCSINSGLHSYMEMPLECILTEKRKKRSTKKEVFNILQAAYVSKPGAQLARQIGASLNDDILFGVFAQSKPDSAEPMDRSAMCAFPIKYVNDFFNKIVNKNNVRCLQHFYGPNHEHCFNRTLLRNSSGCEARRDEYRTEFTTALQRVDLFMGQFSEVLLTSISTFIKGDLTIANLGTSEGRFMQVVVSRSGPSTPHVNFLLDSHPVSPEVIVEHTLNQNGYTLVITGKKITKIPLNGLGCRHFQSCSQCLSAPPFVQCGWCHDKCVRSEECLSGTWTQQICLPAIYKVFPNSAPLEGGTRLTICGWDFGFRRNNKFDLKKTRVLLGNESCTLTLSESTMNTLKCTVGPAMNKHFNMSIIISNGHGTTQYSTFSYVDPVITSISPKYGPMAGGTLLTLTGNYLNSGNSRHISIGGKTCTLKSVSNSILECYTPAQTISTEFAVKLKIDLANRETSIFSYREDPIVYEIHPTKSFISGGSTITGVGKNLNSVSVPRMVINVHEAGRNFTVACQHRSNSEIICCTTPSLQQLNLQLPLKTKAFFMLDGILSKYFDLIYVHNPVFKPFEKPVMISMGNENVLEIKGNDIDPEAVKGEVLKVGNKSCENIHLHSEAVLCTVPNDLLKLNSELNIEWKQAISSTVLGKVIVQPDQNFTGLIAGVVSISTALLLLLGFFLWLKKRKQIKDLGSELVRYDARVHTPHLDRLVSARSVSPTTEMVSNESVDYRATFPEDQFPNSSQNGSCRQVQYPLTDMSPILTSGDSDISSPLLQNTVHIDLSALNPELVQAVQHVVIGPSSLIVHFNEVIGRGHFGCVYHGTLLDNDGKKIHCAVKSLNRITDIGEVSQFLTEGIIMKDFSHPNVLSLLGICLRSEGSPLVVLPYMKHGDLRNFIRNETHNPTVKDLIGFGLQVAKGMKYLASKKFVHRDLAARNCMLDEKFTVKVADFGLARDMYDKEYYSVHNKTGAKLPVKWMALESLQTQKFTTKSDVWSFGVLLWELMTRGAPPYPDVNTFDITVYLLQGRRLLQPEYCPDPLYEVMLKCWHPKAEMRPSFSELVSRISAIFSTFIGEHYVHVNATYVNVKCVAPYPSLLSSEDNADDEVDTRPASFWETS
Sequence of MAP kinase-activated protein kinase 2 (Homo sapiens) (P49137 whole entry, looked up): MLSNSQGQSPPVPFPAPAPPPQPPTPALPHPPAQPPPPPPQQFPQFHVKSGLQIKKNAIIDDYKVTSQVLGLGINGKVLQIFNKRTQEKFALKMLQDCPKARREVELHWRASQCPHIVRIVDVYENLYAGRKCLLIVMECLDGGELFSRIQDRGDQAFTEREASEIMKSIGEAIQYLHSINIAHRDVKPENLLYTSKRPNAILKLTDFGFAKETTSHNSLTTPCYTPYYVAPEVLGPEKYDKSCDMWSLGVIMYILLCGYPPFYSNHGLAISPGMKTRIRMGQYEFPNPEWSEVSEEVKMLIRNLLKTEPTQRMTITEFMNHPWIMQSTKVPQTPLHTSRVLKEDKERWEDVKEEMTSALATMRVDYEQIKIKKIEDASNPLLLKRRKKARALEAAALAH
Sequence of Protein kinase C beta type (Homo sapiens) (P05771 2-671 limits assumed): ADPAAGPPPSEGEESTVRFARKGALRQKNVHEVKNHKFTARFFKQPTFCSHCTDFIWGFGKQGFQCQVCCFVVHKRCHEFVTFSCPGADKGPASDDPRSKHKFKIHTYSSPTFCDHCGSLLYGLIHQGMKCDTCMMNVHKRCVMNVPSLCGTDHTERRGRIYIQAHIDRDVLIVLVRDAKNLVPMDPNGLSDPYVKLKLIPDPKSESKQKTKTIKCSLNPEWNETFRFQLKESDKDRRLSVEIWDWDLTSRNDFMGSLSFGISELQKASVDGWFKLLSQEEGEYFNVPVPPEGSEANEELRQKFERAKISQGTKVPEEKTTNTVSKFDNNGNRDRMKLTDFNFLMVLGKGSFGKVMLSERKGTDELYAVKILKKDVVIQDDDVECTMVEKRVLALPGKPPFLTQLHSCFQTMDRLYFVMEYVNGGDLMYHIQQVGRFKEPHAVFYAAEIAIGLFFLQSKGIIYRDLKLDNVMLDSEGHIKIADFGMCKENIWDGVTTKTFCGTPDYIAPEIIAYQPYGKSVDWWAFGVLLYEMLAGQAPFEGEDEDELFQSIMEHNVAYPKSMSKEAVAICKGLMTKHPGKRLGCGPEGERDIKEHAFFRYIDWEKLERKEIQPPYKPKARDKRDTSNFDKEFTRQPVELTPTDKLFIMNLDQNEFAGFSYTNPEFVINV

With `Clc1ccc(C2(c3ccc(-c4ncnc5[nH]cnc45)cc3)CCNCC2)cc1`, the inhibition in test [1] came out at 2%.

In turn, `C[C@H](CN(C)C)Oc1nc(Nc2cc3cccc(Cl)c3cn2)cnc1C#N` registered an inhibition in test [2] of 0%.

As to `NCC1CN(c2ncnc3[nH]c4cnccc4c23)CCO1` (stereo unspecified), the inhibition in test [3] is 22%; in test [4], 0%.

With `NCC1CCN(c2ncnc3[nH]ccc23)CC1`, in test [5], the inhibition was found to be 25.5%.

On to `c1cnc2[nH]ccc2c1`, for which, in test [6], the inhibition turned out to be 21%.

Usually inhibition stands for the percentage by which the read-out fell short of the control.
